# Data as given in patent US7585854B2, “Method for treating endometriosis” (Tochigi Institute of Clinical Pathology, priority 2000, dated 2009).
# Counter-ions that a name gives are not always drawn.
# Tested on: endometriosis model rats
# Test: Therapeutic effect in endometriosis model rats (uterine tissue autotransplanted to peritoneum; lesion observed by light and electron microscopy)
# Format: in vivo, Sprague-Dawley rats (female)
# Conditions: oral; for invasion of mast cells compared with Comparative Example 1 (non-treated model rats): 0.04 mg/kg bodyweight per day for 6 days from 24 hours after model preparation, lesion sampled at day 7; for therapy of endometriosis (overall conclusion) / apoptosis of fibroblast cells / proliferation of the interstitial cells: 0.04 mg/kg bodyweight per day for 6 days, day 7; for apoptosis of fibroblast cells / proliferation of the interstitial cells: light and electron microscope
# Protocol: Endometriosis model rats were prepared by the method described in Michael W. Vernon et al., FERTILITY AND STERILITY, Vol. 44, No. 5, November 1985. That is, endometriosis model rats were prepared as follows: Sprague-Dawley rats (female) of 8 weeks old were acclimatized for 2 weeks under 12 hours light-dark condition. From each rat, right uterine horn was excised under general anesthesia with sevoflurane and ketamine hydrochloride, and a tissue piece sizing 5 mm×5 mm was prepared therefrom. The tissue piece was subjected to autotransplantation such that the endometrium surface is attached to peritoneum.
# Seven days after the preparation of the model rats, at which the model lesion reached its peak, the peritoneum tissue including the graft up to the abdominal muscle was excised to obtain a lesion sample. From the thus obtained samples, light microscope specimens (hematoxylin-eosin staining, toluidine blue staining) and electron microscope specimens (uranium-lead double staining) were prepared, and observations with an light microscope (the magnifications were 4× for hematoxylineosin-stained specimens, and 20× for toluidine blue-stained specimens, respectively), and with an electron microscope were carried out as in Reference Example 1.
# Endometriosis model rats were prepared by the same method as in Comparative Example 1. From 24 hours after the preparation of the endometriosis model rats, an antiallergic agent (trademark “Alesion Tablet” produced by Boehringer Ingelheim) containing epinastine hydrochloride as the active component was orally administered to the rats for 6 days at a dose of 0.04 mg/kg bodyweight per day in terms of epinastine hydrochloride. Seven days after the preparation of the model rats, at which the model lesion reached its peak, the peritoneum tissues including the graft up to the abdominal muscle were excised to obtain lesion samples.
# The same procedures as in Example 1 were repeated except that an antiallergic agent containing ketotifen fumarate as the active component (trademark “Zaditen” produced by Ciba-Geigy Japan Limited) was administered in place of the antiallergic agent containing epinastine hydrochloride as an active component.
# The same procedures as in Example 1 were repeated except that an antiallergic agent containing pranlukast hydrate as the active component (trademark “ONON CAPSULE” produced by ONO PHARMACEUTICAL CO.,LTD.) was administered in place of the antiallergic agent containing epinastine hydrochloride as an active component, and that the administration dose per day was 9 mg/kg in terms of pranlukast hydrate.
smiles,measurement,value
"NC1=NCC2c3ccccc3Cc3ccccc3N12 (centres unmarked) [epinastine, epinastine hydrochloride]",invasion of mast cells compared with Comparative Example 1 (non-treated model rats),apparently reduced
same,therapy of endometriosis (overall conclusion),effective
same,apoptosis of fibroblast cells,observed
same,proliferation of the interstitial cells,prominent inhibition
"CN1CCC(=C2c3ccccc3CC(=O)c3sccc32)CC1 [ketofetin, ketotifen fumarate]",invasion of mast cells compared with Comparative Example 1 (non-treated model rats),apparently reduced
same,therapy of endometriosis (overall conclusion),effective
same,apoptosis of fibroblast cells,observed
same,proliferation of the interstitial cells,prominent inhibition
